Source: ChEMBL document CHEMBL1149720, “Homoscalarane sesterterpenes from Lendenfeldia frondosa” (J Nat Prod, 1992)
Active and inactive are the calls of the source. No cut-off for these calls is given here.

What was measured:
[1] = Inhibition of PLA2 activity at 8 uM
[2] = Inhibition of PLA2 activity at 4 uM

Compound	Activity [1]	also measured
CC(=O)OC[C@]12CCCC(C)(C)[C@@H]1CC[C@]1(C)[C@@H]2C[C@@H](O)[C@]2(C)[C@H]3C(=O)O[C@@H](C)[C@@H]3[C@@H](OC(C)=O)C[C@@H]12	inactive	–
CC1=C(CC/C(C)=C/CCC2=CC[C@H](C3=CC(=O)O[C@H]3O)O[C@H]2O)C(C)(C)CCC1	–	inhibition [2]: 100%
COC(=O)[C@H]1[C@H](C(C)=O)[C@@H](OC(C)=O)C[C@H]2[C@]3(C)CC[C@H]4C(C)(C)CCC[C@]4(COC(C)=O)[C@H]3C[C@@H](O)[C@]12C	inactive	–
CC(=O)OC[C@]12CCCC(C)(C)[C@@H]1CC[C@]1(C)[C@@H]2C[C@H]2OC(=O)[C@H]3[C@H](C(C)=O)[C@H](OC(C)=O)C[C@@H]1[C@]23C	–	inhibition [1]: 35%
